# Results taken from ChEMBL document CHEMBL1201862, “PubChem BioAssay data set” (2004).
#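 In this assay, cells in 96-well plates receive the compound at five concentrations for 48 hours. Endpoints are linearly interpolated between the surrounding concentrations. GI50 marks 50% less growth.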 Activity calls are given as the source filed them. No stated cut-off is given here; in the data, active = GI50 up to about 1.1 µM and inactive = higher.
# Experiments:
# Assay in all cases: NCI tumour cell line growth inhibition, 48 h
# DU-145 = tested on: DU-145
# SK-MEL-2 = tested on: SK-MEL-2
# NCI-H23 = tested on: NCI-H23
# HOP-92 = tested on: HOP-92
# NCI/ADR-RES = tested on: NCI/ADR-RES
# A549 = tested on: A549
# OVCAR-3 = tested on: OVCAR-3
# MDA-MB-435 = tested on: MDA-MB-435
# SNB-19 = tested on: SNB-19
# MDA-MB-231 = tested on: MDA-MB-231
# SK-OV-3 = tested on: SK-OV-3
# IGROV-1 = tested on: IGROV-1
# LOX IMVI = tested on: LOX IMVI
# Malme-3M = tested on: Malme-3M
# T47D = tested on: T47D
# PC-3 = tested on: PC-3
# SW-620 = tested on: SW-620
# UACC-62 = tested on: UACC-62
# MCF7 = tested on: MCF7
# SR = tested on: SR
SMILES,GI50 (DU-145),GI50 (SK-MEL-2),GI50 (NCI-H23),GI50 (HOP-92),GI50 (NCI/ADR-RES),GI50 (A549),GI50 (OVCAR-3),GI50 (MDA-MB-435),GI50 (SNB-19),GI50 (MDA-MB-231),GI50 (SK-OV-3),GI50 (IGROV-1),GI50 (LOX IMVI),GI50 (Malme-3M),GI50 (T47D),GI50 (PC-3),GI50 (SW-620),GI50 (UACC-62),GI50 (MCF7),GI50 (SR)
CN1C2CCC1CN(CCOC(c1ccc(F)cc1)c1ccc(F)cc1)C2,57.5 µM (inactive),23.8 µM (inactive),69.7 µM (inactive),21.4 µM (inactive),35.4 µM (inactive),65 µM (inactive),47.1 µM (inactive),23.4 µM (inactive),> 100 µM (inactive),22.9 µM (inactive),42.3 µM (inactive),36.1 µM (inactive),19.8 µM (inactive),17.9 µM (inactive),24.3 µM (inactive),28.6 µM (inactive),23.6 µM (inactive),,,
CCOP(=O)(Nc1ccc(-c2ccc(N)cc2)cc1)OCC,> 100 µM (inactive),> 100 µM (inactive),> 100 µM (inactive),> 100 µM (inactive),> 100 µM (inactive),> 100 µM (inactive),> 100 µM (inactive),> 100 µM (inactive),94.8 µM (inactive),> 100 µM (inactive),> 100 µM (inactive),> 100 µM (inactive),,> 100 µM (inactive),,> 100 µM (inactive),,> 100 µM (inactive),> 100 µM (inactive),
COC(=O)C1=C(C(=O)OC)C23CC4CCC2(C(=O)C1O3)C4(C)C (stereo unspecified),> 100 µM (inactive),> 100 µM (inactive),> 100 µM (inactive),48.5 µM (inactive),,> 100 µM (inactive),> 100 µM (inactive),,> 100 µM (inactive),,> 100 µM (inactive),> 100 µM (inactive),84.5 µM (inactive),> 100 µM (inactive),,,78.3 µM (inactive),73.1 µM (inactive),,26.7 µM (inactive)
CCOC(OCC)C(CC)[Se]c1ccccc1[N+](=O)[O-] (stereo unspecified),3.95 µM (inactive),6.34 µM (inactive),3.03 µM (inactive),> 22.2 µM (inactive),,4.79 µM (inactive),2.45 µM (inactive),,3.75 µM (inactive),9.2 µM (inactive),2.31 µM (inactive),3.48 µM (inactive),5.33 µM (inactive),7.28 µM (inactive),9.06 µM (inactive),3.27 µM (inactive),2.5 µM (inactive),2.44 µM (inactive),,0.593 µM (active)
C#C[C@@H](OC(=O)c1ccc([N+](=O)[O-])cc1)[C@@H]1C[C@H]2O[C@@H]([C@H](C/C=C/CC)OC(=O)c3ccc([N+](=O)[O-])cc3)C[C@H]2O1,> 100 µM (inactive),> 100 µM (inactive),> 100 µM (inactive),> 100 µM (inactive),> 100 µM (inactive),> 100 µM (inactive),> 100 µM (inactive),> 100 µM (inactive),> 100 µM (inactive),> 100 µM (inactive),> 100 µM (inactive),83.4 µM (inactive),> 100 µM (inactive),> 100 µM (inactive),> 100 µM (inactive),> 100 µM (inactive),> 100 µM (inactive),> 100 µM (inactive),,
COc1cc(=O)n2c3ccccc3n(C)c2c1C#N,> 100 µM (inactive),> 100 µM (inactive),> 100 µM (inactive),> 100 µM (inactive),> 100 µM (inactive),> 100 µM (inactive),> 100 µM (inactive),> 100 µM (inactive),> 100 µM (inactive),> 100 µM (inactive),> 100 µM (inactive),> 100 µM (inactive),,> 100 µM (inactive),,> 100 µM (inactive),> 100 µM (inactive),> 100 µM (inactive),> 100 µM (inactive),> 100 µM (inactive)
Cc1ccc(S(=O)(=O)N/N=C/c2oc(-c3cccc([N+](=O)[O-])c3)c(-c3cccc([N+](=O)[O-])c3)c2[N+](=O)[O-])cc1,> 100 µM (inactive),28.3 µM (inactive),42.4 µM (inactive),31.9 µM (inactive),,> 100 µM (inactive),> 100 µM (inactive),,67.1 µM (inactive),,23.4 µM (inactive),29.9 µM (inactive),16.7 µM (inactive),> 100 µM (inactive),,,37.8 µM (inactive),17.8 µM (inactive),,17.6 µM (inactive)
COC(=O)CSc1nc2[nH]c(SC)c(C(N)=O)c2c(=O)n1-c1ccccc1,> 10 µM (inactive),,> 10 µM (inactive),> 10 µM (inactive),,> 10 µM (inactive),,> 10 µM (inactive),,> 10 µM (inactive),> 10 µM (inactive),> 10 µM (inactive),> 10 µM (inactive),> 10 µM (inactive),> 10 µM (inactive),> 10 µM (inactive),> 10 µM (inactive),> 10 µM (inactive),> 10 µM (inactive),> 10 µM (inactive)
CCN(CC)C(=O)CCCCCCCCC1CO1 (stereo unspecified),> 100 µM (inactive),> 100 µM (inactive),> 100 µM (inactive),> 100 µM (inactive),> 100 µM (inactive),> 100 µM (inactive),> 100 µM (inactive),> 100 µM (inactive),> 100 µM (inactive),> 100 µM (inactive),> 100 µM (inactive),> 100 µM (inactive),63.4 µM (inactive),81.3 µM (inactive),,> 100 µM (inactive),> 100 µM (inactive),> 100 µM (inactive),> 100 µM (inactive),> 100 µM (inactive)
CCCCn1c(C)c(C(=O)OCC)c2cc(OCc3ccc(C(=O)Nn4c(C)ccc4C)cc3)c(Br)cc21,> 100 µM (inactive),> 100 µM (inactive),> 100 µM (inactive),> 100 µM (inactive),> 100 µM (inactive),> 100 µM (inactive),> 100 µM (inactive),> 100 µM (inactive),> 100 µM (inactive),,> 100 µM (inactive),> 100 µM (inactive),> 100 µM (inactive),> 100 µM (inactive),> 100 µM (inactive),> 100 µM (inactive),> 100 µM (inactive),> 100 µM (inactive),> 100 µM (inactive),> 100 µM (inactive)
O=C(N/N=C(\c1ccccc1)c1ccccn1)NC1CCCCC1,64.6 µM (inactive),82.4 µM (inactive),47.9 µM (inactive),61.8 µM (inactive),,46.8 µM (inactive),39.6 µM (inactive),> 100 µM (inactive),> 100 µM (inactive),27.7 µM (inactive),45.5 µM (inactive),30.6 µM (inactive),19.4 µM (inactive),38.6 µM (inactive),28.6 µM (inactive),56.2 µM (inactive),76 µM (inactive),38.2 µM (inactive),,72.6 µM (inactive)
COc1cc2c(cc1OC)[C@@H]1[C@H](C#N)C(=O)C(C)(C)N1CC2,> 100 µM (inactive),,> 100 µM (inactive),> 100 µM (inactive),> 100 µM (inactive),> 100 µM (inactive),> 100 µM (inactive),> 100 µM (inactive),> 100 µM (inactive),28.6 µM (inactive),> 100 µM (inactive),> 100 µM (inactive),> 100 µM (inactive),> 100 µM (inactive),,> 100 µM (inactive),> 100 µM (inactive),> 100 µM (inactive),> 100 µM (inactive),> 100 µM (inactive)
CCOC(=O)C1=C(c2ccccc2)N(C(C)=O)Cc2ccccc21,,17.5 µM (inactive),12.6 µM (inactive),3.1 µM (inactive),,18.4 µM (inactive),18.6 µM (inactive),,44.6 µM (inactive),,29.9 µM (inactive),23.6 µM (inactive),16 µM (inactive),19.1 µM (inactive),,,34.8 µM (inactive),12.2 µM (inactive),,9.73 µM (inactive)
CCOC(=O)N/N=C(/N)Cc1ccc(Cl)cc1,> 100 µM (inactive),> 100 µM (inactive),> 100 µM (inactive),> 100 µM (inactive),> 100 µM (inactive),> 100 µM (inactive),> 100 µM (inactive),> 100 µM (inactive),> 100 µM (inactive),> 100 µM (inactive),> 100 µM (inactive),> 100 µM (inactive),> 100 µM (inactive),,,> 100 µM (inactive),> 100 µM (inactive),> 100 µM (inactive),> 100 µM (inactive),
O=C1NC2=NN=C(c3ccc(Br)cc3)CN2NC12c1ccccc1-c1ccccc12,> 100 µM (inactive),> 100 µM (inactive),> 100 µM (inactive),> 100 µM (inactive),> 100 µM (inactive),> 100 µM (inactive),> 100 µM (inactive),> 100 µM (inactive),> 100 µM (inactive),> 100 µM (inactive),> 100 µM (inactive),> 100 µM (inactive),> 100 µM (inactive),> 100 µM (inactive),,> 100 µM (inactive),> 100 µM (inactive),> 100 µM (inactive),73.3 µM (inactive),69.2 µM (inactive)
Cc1ccccc1/N=N/c1ccc(/N=N/c2c(O)ccc3ccccc23)c(C)c1 [SCARLET RED],> 100 µM (inactive),> 100 µM (inactive),> 100 µM (inactive),> 100 µM (inactive),> 100 µM (inactive),> 100 µM (inactive),> 100 µM (inactive),> 100 µM (inactive),81.7 µM (inactive),> 100 µM (inactive),> 100 µM (inactive),> 100 µM (inactive),> 100 µM (inactive),> 100 µM (inactive),> 100 µM (inactive),> 100 µM (inactive),> 100 µM (inactive),> 100 µM (inactive),,
